Test results reported in patent publication EP4759814A1, “TRICYCLIC COMPOUND AND USE THEREOF AS MAT2A INHIBITOR” (SK Biopharmaceuticals Co., Ltd., priority 2023, dated 2025).
Where two headings read alike, the source gives them in different places.

Experiments:
[1] = tested on: HCT116 (MTAP del) cell line; experiment: Cell proliferation inhibition in MTAP-deficient cancer cells, WST-1 assay; format: cell-based; settings: maximum concentration 10 µM, read-out: HCT116 MTAP^-/- (IC50, cell proliferation inhibited by 50%)
Protocol: (§1) The HCT116 (MTAP del) cell line, which is a colorectal cancer cell line with deletion of MTAP gene, was treated with a compound according to an embodiment of the present application as a MAT2A inhibitor, and after culturing for 120 hours, the change in the number of cells was measured with a WST-1 assay reagent. The WST-1 assay is an assay that measures the number of cells by measuring the generation of a chromogenic substance called formazan from tetrazolium salts by intracellular mitochondrial dehydrogenase. In addition, as a control group, a wild-type colorectal cancer HCT116 (MTAP WT) cell line containing the MTAP gene was used to perform the experiment in the same manner as the experimental group.
(§2) Cell lines and reagents: HCT116 (MTAP WT (catalog number HD PAR-034), MTAP del (catalog number HD R02-033)) cell lines were purchased from Horizon Discovery (USA), and RPMI1640 medium (catalog number 22400-093), FBS (Fetal Bovine serum, catalog number 16000044), and Penicillin/Streptomycin (catalog number 15140-122) were purchased from GIBCO (USA). WST-1 (catalog number EZ-BULK150) was purchased from Dogen (Korea).
(§3) Experimental procedure: HCT116 (MTAP WT, MTAP del) cell lines were dispensed into a 96-well plate at a concentration of 1,000 cells/well in RPMI1640 culture medium containing 10% FBS and 1% Penicillin/Streptomycin, and allowed to attach for 24 hours. When the cells were attached to the plate, the drug was diluted 4-fold from a maximum concentration of 10 µM and treated on the cells. After 120 hours of drug treatment, 20 µL of WST-1 solution was treated for 2 hours, and absorbance at 450 nm was measured using SpectraMax M4 (Molecular Devices). Data analysis was calculated by taking the DMSO control group value as 100%. For the IC50 value, the concentration at which cell proliferation is inhibited by 50% was calculated through interpolation using a 4-parameter fit of the dose-response curve using the GraphPad Prism 8.4.3 program. The cancer cell proliferation inhibitory ability and selectivity in MTAP-deficient cancer cells of the compounds according to an embodiment of the present application are described in Table 3 (+++: 1 to 100 nM, ++: more than 100 to 1,000 nM, +: more than 1 to 10 µM, -: more than 10 µM).

MAT2A = biological target: T1, MAT2A (Homo sapiens, UniProt P31153); experiment: MAT2A inhibitory activity, colorimetric phosphate detection (PiColorLock) enzyme assay; format: biochemical; settings: Test Condition 1 or 2 (not stated which per compound); absorbance at 630 nm
T1 construct: purchased BPS Bioscience (USA) 71401
Protocol: In vitro assay: Methionine and adenosine triphosphate (ATP) are converted into S-adenosylmethionine (SAM) and inorganic phosphate (pi) via the catalytic action of methionine adenosyltransferase 2A (MAT2A). The produced pi is detected by the PiColorLock™ Phosphate Detection Reagent, which is a colorimetric assay, and the activity of MAT2A can be evaluated according to the amount of pi generated during the enzyme reaction. Each compound was evaluated under Test Condition 1 or 2 as described below.
• Concentration of MAT2A inhibitor: maximum concentration of 50 µM, 5-fold dilution (7 groups in total) • MAT2A concentration: 12 ng/µL • ATP and Met concentration: 100 µM, 80 µM
• Concentration of MAT2A inhibitor: maximum concentration of 1 µM, 3-fold dilution (7 groups in total) • MAT2A concentration: 4 ng/µL • ATP and Met concentration: 300 µM, 150 µM • Reagents: Methionine (catalog number M5308) and ATP (catalog number A2383) were purchased from Sigma-Aldrich (USA). MAT2A (catalog number 71401) was purchased from BPS Bioscience (USA), and PiColorLock™ Phosphate Detection Reagent (catalog number 303-0030) was purchased from Novus (USA).
Assay buffer composition: 50 mM Tris-HCl pH 8.0, 50 mM KCI, 15 mM MgCl2, 0.3 mM EDTA, 0.005 % (w/v) BSA
Experimental procedure: Each compound was diluted 5-fold or 3-fold based on the maximum concentration (5 mM or 1 mM or 0.1 mM) using DMSO. The diluted compounds were diluted 20-fold using assay buffer, and then mixed at a volume ratio of 1:2 with MAT2A (30 ng/µL or 10 ng/µL) diluted with assay buffer and treated for 30 minutes at room temperature. The negative control group is a group untreated with both the MAT2A enzyme and the compound according to an embodiment of the present application, and the positive control group is a group treated only with the MAT2A enzyme and untreated with the compound according to an embodiment of the present application.
In each well of a 384-well plate, 30 µL of the mixed solution and 20 µL of a 1:1 mixed solution of ATP (0.5 mM or 1.5 mM) and Met (0.4 mM or 0.75 mM) were mixed and then treated for 1 hour at room temperature. After the enzyme reaction, 13 µL of a 100:1 mixed solution of PiColorLockTM and Accelerator was treated in each well and reacted for 5 minutes at room temperature. After treating 5 µL of Stabilizer in each well and reacting for 25 minutes at room temperature, the absorbance at 630 nm was measured using SpectraMax M4 (Molecular Devices, USA) to calculate the IC50 value of the compound.
Analysis method: The enzyme activity (%) of each experimental group was calculated as {(average O.D. of compound-treated group - average O.D. of negative control group)/(average O.D. of positive control group - average O.D. of negative control group)} * 100. After preparing a dose-response curve (4-parameter) using the enzyme activity according to the treatment concentration of each compound in GraphPad Prism 9, the 50 % of enzyme inhibitory activity value (IC50) was calculated through non-linear regression analysis. The IC50 results measured for the MAT2A activity inhibitory ability of the compounds according to an embodiment of the present application are shown in Table 2 (+++: more than 1 to 100 nM, ++: more than 100 to 1,000 nM, +: more than 1,000 to 10,000 nM, -: more than 10,000 nM).

[2] = tested on: HCT116 (MTAP WT) cell line; experiment: Cell proliferation inhibition in wild-type control cells, WST-1 assay; format: cell-based; settings: maximum concentration 10 µM, read-out: HCT116 WT (IC50, cell proliferation inhibited by 50%)
Protocol: as §1, §2, §3

[3] = Homo sapiens, HCT-116, 120 h, 120 hours of drug treatment
[4] = Homo sapiens, HCT-116, 120 hours of drug treatment

T1 sequence (P31153 whole entry): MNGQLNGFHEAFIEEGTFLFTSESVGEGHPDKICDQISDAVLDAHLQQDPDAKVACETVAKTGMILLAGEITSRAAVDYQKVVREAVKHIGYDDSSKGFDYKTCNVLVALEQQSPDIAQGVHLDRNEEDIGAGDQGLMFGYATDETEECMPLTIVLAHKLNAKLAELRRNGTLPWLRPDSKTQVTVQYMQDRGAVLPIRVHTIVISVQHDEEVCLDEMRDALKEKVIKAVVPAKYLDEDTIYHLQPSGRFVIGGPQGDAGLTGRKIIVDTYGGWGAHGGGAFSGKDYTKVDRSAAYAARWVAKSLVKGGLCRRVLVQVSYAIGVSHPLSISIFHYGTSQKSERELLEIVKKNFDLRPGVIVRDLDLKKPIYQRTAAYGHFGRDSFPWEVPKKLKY

Compound	IC50 (MAT2A)	IC50 [1, 4]	IC50 [2, 4]	IC50 ([1]; 120 hours of drug treatment)	IC50 ([2]; 120 hours of drug treatment)	IC50 [1, 3]
Cc1ccccc1-n1c(=O)c2nccn2c2ccc(Cl)cc21 (atropisomer, axis not shown; (Ra)) [Example 20, (Ra)-7-chloro-5-(o-tolyl)imidazo[1,2-a]quinoxalin-4(5H)-one]	> 10000 nM			> 10000 nM	> 10000 nM	
Cc1ccccc1-n1c(=O)c2nccn2c2ccc(Cl)cc21 (atropisomer, axis not shown; (Sa)) [Example 21, (Sa)-7-chloro-5-(o-tolyl)imidazo[1,2-a]quinoxalin-4(5H)-one]	1 to 100 nM			1 to 100 nM	> 10000 nM	
Cc1ncccc1-n1c(=O)c2nccn2c2cc(Cl)c(Br)cc21 (atropisomer, axis not shown; (Sa)) [Example 81, (Sa)-7-bromo-8-chloro-5-(2-methylpyridin-3-yl)imidazo[1,2-a]quinoxalin-4(5H)-one]					1000 to 10000 nM	1 to 100 nM
Cc1cc2c(cc1C(F)(F)F)n(-c1cccnc1C)c(=O)c1nccn12 (atropisomer, axis not shown; (Sa)) [Example 95, (Sa)-8-methyl-5-(2-methylpyridin-3-yl)-7-(trifluoromethyl)imidazo[1,2-a]quinoxalin-4(5H)-one]					> 10000 nM	1 to 100 nM
Cc1ncccc1-n1c(=O)c2nccn2c2cc(Cl)c(C(F)(F)F)cc21 (atropisomer, axis not shown; (Sa)) [Example 98, (Sa)-8-chloro-5-(2-methylpyridin-3-yl)-7-(trifluoromethyl)imidazo[1,2-a]quinoxalin4(5H)-one]					> 10000 nM	1 to 100 nM
CCc1ncccc1-n1c(=O)c2nccn2c2cc(Cl)c(C(F)(F)F)cc21 (atropisomer, axis not shown; (Sa)) [Example 112, (Sa)-8-chloro-5-(2-ethylpyridin-3-yl)-7-(trifluoromethyl)imidazo[1,2-a]quinoxalin4(5H)-one]						> 10000 nM
Cc1ccccc1-n1c(=O)c2nccn2c2ccc(Cl)cc21 [Example 1, 7-chloro-5-(o-tolyl)imidazo[1,2-a]quinoxalin-4(5H)-one]	100 to 1000 nM	100 to 1000 nM	> 10000 nM			
Cc1c(F)cccc1-n1c(=O)c2nccn2c2ccc(OC(F)(F)F)cc21 [Example 15, 5-(3-fluoro-2-methylphenyl)-7-(trifluoromethoxy)imidazo[1,2-a]quinoxalin-4(5H)-one]	1000 to 10000 nM	100 to 1000 nM	> 10000 nM			

Continued, in another order:

IC50 (MAT2A)	IC50 [1, 4]	IC50 [2, 4]	Compound	IC50 ([1]; 120 hours of drug treatment)	IC50 ([2]; 120 hours of drug treatment)	IC50 [1, 3]
100 to 1000 nM	1000 to 10000 nM	> 10000 nM	O=c1c2nccn2c2ccc(Cl)cc2n1-c1ccccc1 [Example 2, 7-chloro-5-phenylimidazo[1,2-a]quinoxalin-4(5H)-one]			
100 to 1000 nM	100 to 1000 nM	> 10000 nM	CCc1ccccc1-n1c(=O)c2nccn2c2ccc(Cl)cc21 [Example 3, 7-chloro-5-(2-ethylphenyl)imidazo[1,2-a]quinoxalin-4(5H)-one]			
100 to 1000 nM	100 to 1000 nM	> 10000 nM	Cc1cccc(-n2c(=O)c3nccn3c3ccc(Cl)cc32)c1C [Example 4, 7-chloro-5-(2,3-dimethylphenyl)imidazo[1,2-a]quinoxalin-4(5H)-one]			
100 to 1000 nM	1000 to 10000 nM	> 10000 nM	CC(C)c1ccccc1-n1c(=O)c2nccn2c2ccc(Cl)cc21 [Example 5, 7-chloro-5-(2-isopropylphenyl)imidazo[1,2-a]quinoxalin-4(5H)-one]			
100 to 1000 nM	100 to 1000 nM	1000 to 10000 nM	Cc1c(F)cccc1-n1c(=O)c2nccn2c2ccc(Cl)cc21 [Example 6, 7-chloro-5-(3-fluoro-2-methylphenyl)imidazo[1,2-a]quinoxalin-4(5H)-one]			
100 to 1000 nM	1000 to 10000 nM	> 10000 nM	O=c1c2nccn2c2ccc(Cl)cc2n1-c1ccccc1C(F)(F)F [Example 7, 7-chloro-5-(2-(trifluoromethyl)phenyl)imidazo[1,2-a]quinoxalin-4(5H)-one]			
1000 to 10000 nM	> 10000 nM	> 10000 nM	Cc1cc(F)ccc1-n1c(=O)c2nccn2c2ccc(Cl)cc21 [Example 8, 7-chloro-5-(4-fluoro-2-methylphenyl)imidazo[1,2-a]quinoxalin-4(5H)-one]			
> 10000 nM	> 10000 nM	> 10000 nM	Cc1ccc(F)cc1-n1c(=O)c2nccn2c2ccc(Cl)cc21 [Example 9, 7-chloro-5-(5-fluoro-2-methylphenyl)imidazo[1,2-a]quinoxalin-4(5H)-one]			
1 to 100 nM	1 to 100 nM	100 to 1000 nM	Cc1c(F)cccc1-n1c(=O)c2nccn2c2ccc(C(F)(F)F)cc21 [Example 10, 5-(3-fluoro-2-methylphenyl)-7-(trifluoromethyl)imidazo[1,2-a]quinoxalin-4(5H)-one]			
100 to 1000 nM	1 to 100 nM	100 to 1000 nM	Cc1c(Cl)cccc1-n1c(=O)c2nccn2c2ccc(Cl)cc21 [Example 11, 7-chloro-5-(3-chloro-2-methylphenyl)imidazo[1,2-a]quinoxalin-4(5H)-one]			
100 to 1000 nM	100 to 1000 nM	> 10000 nM	Cc1c(F)cccc1-n1c(=O)c2nccn2c2ccc(C3CC3)cc21 [Example 13, 7-cyclopropyl-5-(3-fluoro-2-methylphenyl)imidazo[1,2-a]quinoxalin-4(5H)-one]			
100 to 1000 nM	100 to 1000 nM	> 10000 nM	COc1ccc2c(c1)n(-c1cccc(F)c1C)c(=O)c1nccn12 [Example 14, 5-(3-fluoro-2-methylphenyl)-7-methoxyimidazo[1,2-a]quinoxalin-4(5H)-one]			
